Type in all cases: physicochemical
Data set [1] can be described thus: Solubility of Form S14 in aqueous media at 37° C. To be noted: for solubility: thermodynamic from solid, read-out: Concentration (solubility). As to the method: (§1) Solubility was tested by addition of portions of […] solution to 25 mg of STG salt and stirring it at 37° C. for 1-2 minutes till dissolved. Form S14 was also found to be chemically and polymorphically stable.

Data set [2] can be described thus: Storage of a crystalline form under controlled relative humidity, form determined by powder XRD. As to the method: About 100 mg of Sitagliptin L-malate form I1 was put in an open yellow plastic cap, and kept at 100% relative humidity (RH) and room temperature for 6 days. It was then analyzed by powder XRD, and found to have transformed into form I2.
About 150 mg of Sitagliptin sulfate form S2 was put in an open Petri dish, and kept at 100±5% RH and room temperature for 12 days. It was then analyzed by powder XRD, and found to have transformed into form S9.
About 150 mg of Sitagliptin sulfate form S6 was put in an open Petri dish, and kept at 100±5% RH and room temperature for 12 days. It was then analyzed by powder XRD, and found to have transformed into form S9.
About 150 mg of Sitagliptin sulfate form S14 was stored under 80% RH at 25° C. for 7 days. The sample was then tested by XRPD and determined to be crystal form Si of Sitagliptin sulfate.
About 150 mg of Sitagliptin sulfate form S14 was stored under 100% RH at 25° C. for 7 days.
About 150 mg of Sitagliptin sulfate form S14 was stored under 70% RH at 25° C. for 7 days. The sample was then tested by XRPD and determined to be crystal form S1 of Sitagliptin sulfate.
About 150 mg of Sitagliptin sulfate form S14 was stored under 60% RH at 40° C. for 3 days. The sample was then tested by XRPD and determined to be crystal form S1 of Sitagliptin sulfate.

Data set [3] is described as follows: Chemical and polymorphic storage stability of Form S14. To be noted: six months at 25° C. As for the experimental part: as §1
Data set [4] can be described thus: Stability test in 0-100% relative humidity cells, 7 days, room temperature (XRPD and TGA). Conditions: for Polymorphically stable up to (relative humidity): 7 days at room temperature; for Equilibrium amount of water: from TGA of the humidity test. As to the method: A sample of form S14 was equilibrated in 0-100% relative humidity cells for 7 days at room temperature. The samples were analyzed by XRPD and TGA. […] 10-15 mg samples were placed into 150 μL alumina crucibles and scanned between 25-250° C. at 10°/minute heating rate under 40 ml/minute N2 flow rate. For XRPD the ARL instrument was used. A sample of form S16 was equilibrated in 0-100% relative humidity cells for 7 days at room temperature. The samples were analyzed by XRPD and TGA. […] 10-15 mg samples were placed into 150 μL alumina crucibles and scanned between 25-250° C. at 10°/minute heating rate under 40 ml/minute N2 flow rate. For XRPD the ARL instrument was used.

A short description of data set [5]: Water solubility of Form S16 (European Pharmacopoeia classification).
Where [6] appears, read: 0% RH, 7 days, room temperature.
Setting [7] is: 20% RH, 7 days, room temperature.
Setting [8] is: 40% RH, 7 days, room temperature.
The mark [9] stands for this setting: 60% RH, 7 days, room temperature.
Setting [10] is: 80% RH, 7 days, room temperature.
The mark [11] stands for this setting: 100% RH, 7 days, room temperature.

The text below walks through data of patent US8183373B2, “Solid state forms of sitagliptin salts” (Teva Pharmaceutical Industries Ltd., priority 2010, dated 2012).

Where a name gives a salt, the structure may show the parent alone.

With `N[C@@H](CC(=O)N1CCn2c(nnc2C(F)(F)F)C1)Cc1cc(F)c(F)cc1F` [Form S14, Sitagliptin sulfate], the solubility in data set [1] (aqueous medium, aqueous buffer, pH 4.5 37° C.) was 500 mg/mL; in data set [1] (aqueous medium, aqueous buffer, pH 6.8 37° C.) it was 330 mg/mL; in data set [1] (aqueous medium, aqueous buffer, pH 7.8 37° C.), 300 mg/mL; in data set [1] (aqueous medium, simulated gastric fluid, pH 1.2, 37° C.) it was 500 mg/mL; in data set [1] (Water 37° C.), 300 mg/mL. Besides, the “Solubility in different aqueous media” value in data set [1] (different aqueous media) is given as “highly soluble”. Besides, the “Form after storage (XRPD)” value in data set [2] (80% RH at 25° C. for 7 days) was “Si”; in data set [2] (100% RH at 25° C. for 7 days), “polymorphic mixture of form S1 and form S11”. The “Chemical and polymorphic stability” value in data set [3] is reported as “No degradation or polymorphic transformation”. In addition, in data set [4], the “Hygroscopicity” value was “hygroscopic”. Besides, the “% weight loss (TGA)” value in data set [4] (setting [6]) came out at 2.3%; in data set [4] (setting [7]) it was 2.0%; in data set [4] (setting [8]), 1.9%; in data set [4] (setting [9]), 2.4%; in data set [4] (setting [10]), 4.4%; in data set [4] (setting [11]) it was 8.9%. Besides, in data set [4] (Before the experiment), the “% weight loss (TGA)” value is 3.4%. Besides, the “Polymorphically stable up to (relative humidity)” value in data set [4] is “up to 60 % RH”. In addition, the “Equilibrium amount of water” value in data set [4] is listed as “about 2%”.

Turning to `N[C@@H](CC(=O)N1CCn2c(nnc2C(F)(F)F)C1)Cc1cc(F)c(F)cc1F` [Form S16, Sitagliptin sulfate], in data set [5] (classification of the European Pharmacopoeia Commission 01/2008:5110), the Solubility classification entry is reported as “freely soluble”. Moreover, the solubility in data set [5] (in 1 mL of water, read-out: Amount soluble in 1 mL of water) was ≥ 100 mg/mL. Also, in data set [4], the “Hygroscopicity” value is on record as “low hygroscopicity”. For the same molecule, the “% weight loss (TGA)” value in data set [4] (setting [6]) is reported as 2.9%; in data set [4] (setting [7]), 2.9%; in data set [4] (setting [8]), 2.9%; in data set [4] (setting [9]), 2.9%; in data set [4] (setting [10]) it was 4.4%; in data set [4] (setting [11]), 8.9%. Also, the “% weight loss (TGA)” value in data set [4] (Before the experiment) came out at 3.0%. Besides, the “Polymorphically stable up to (relative humidity)” value in data set [4] is recorded as “up to 60 % RH”. This molecule also had a Constant water content in data set [4] (corresponds to the sesquihydrate) of 2.9%. Also, the “Equilibrium amount of water” value in data set [4] is “about 2.9%”.
